Measurements as given in the Kinase Knowledgebase extract (Sharma et al. 2016).

What was measured:
[1] = biological target: PIK3CA (UniProt P42336); assay: PI 3-Kinase Inhibition; conditions: for inhibition: concentration not given here
[2] = system: PIK3CA (rat); assay: Hexosaminidase Secretion Inhibition (RBL-2H3 cells); conditions: rbl2h3

Chain of PIK3CA (P42336 whole entry, looked up): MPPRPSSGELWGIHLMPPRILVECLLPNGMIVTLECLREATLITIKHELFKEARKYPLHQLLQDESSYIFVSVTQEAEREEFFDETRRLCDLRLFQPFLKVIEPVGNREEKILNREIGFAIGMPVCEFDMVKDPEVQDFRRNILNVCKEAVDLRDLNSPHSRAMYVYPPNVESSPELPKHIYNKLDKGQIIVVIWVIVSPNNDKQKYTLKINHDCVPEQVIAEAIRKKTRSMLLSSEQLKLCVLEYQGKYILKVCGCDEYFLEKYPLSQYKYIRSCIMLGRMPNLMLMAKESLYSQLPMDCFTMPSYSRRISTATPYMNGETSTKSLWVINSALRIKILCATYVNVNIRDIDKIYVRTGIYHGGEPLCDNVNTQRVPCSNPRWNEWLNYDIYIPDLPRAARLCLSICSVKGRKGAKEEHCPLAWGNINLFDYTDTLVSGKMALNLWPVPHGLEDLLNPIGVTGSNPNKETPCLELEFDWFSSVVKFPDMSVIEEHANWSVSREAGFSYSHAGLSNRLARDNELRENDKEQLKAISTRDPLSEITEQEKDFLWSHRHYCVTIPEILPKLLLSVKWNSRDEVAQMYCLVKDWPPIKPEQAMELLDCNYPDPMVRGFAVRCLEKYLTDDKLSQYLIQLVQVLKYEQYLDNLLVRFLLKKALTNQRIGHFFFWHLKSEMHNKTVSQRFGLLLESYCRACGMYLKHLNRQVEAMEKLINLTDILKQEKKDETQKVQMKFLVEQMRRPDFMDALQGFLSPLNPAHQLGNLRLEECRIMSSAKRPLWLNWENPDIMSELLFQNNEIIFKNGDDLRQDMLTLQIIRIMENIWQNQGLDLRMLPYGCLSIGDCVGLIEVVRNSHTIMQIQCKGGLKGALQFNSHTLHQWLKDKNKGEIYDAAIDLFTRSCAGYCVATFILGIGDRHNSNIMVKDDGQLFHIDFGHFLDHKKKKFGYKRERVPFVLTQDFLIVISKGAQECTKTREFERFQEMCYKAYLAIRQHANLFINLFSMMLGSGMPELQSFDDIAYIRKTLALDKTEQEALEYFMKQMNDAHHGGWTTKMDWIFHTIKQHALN

Row | inhibition [1] | IC50 [2] | IC50 [1] | Structure (SMILES)
1 | > 98% | 17 µM | 20 µM | CCCCCCCCCCCCCCCC(=O)OC[C@@H](COP(=O)(O)O[C@H]1[C@H](O)[C@@H](O)[C@H](O)[C@@H](CN)[C@H]1O)OC(=O)CCCCCCCCCCCCCCC
2 | 60% |  |  | CCCCCCCCCCCCCCCC(=O)OC[C@@H](COP(=O)(O)O[C@H]1[C@H](O)[C@@H](O)[C@H](O)[C@@H](CBr)[C@H]1O)OC(=O)CCCCCCCCCCCCCCC
3 | 60% |  |  | CCCCCCCCCCCCCCCC(=O)OC[C@@H](COP(=O)(O)O[C@H]1[C@H](O)[C@@H](O)[C@H](O)[C@@H](CI)[C@H]1O)OC(=O)CCCCCCCCCCCCCCC
4 | 60% |  |  | CCCCCCCCCCCCCCCC(=O)OC[C@@H](COP(=O)(O)O[C@H]1[C@H](O)[C@@H](O)[C@H](O)[C@@H](CCl)[C@H]1O)OC(=O)CCCCCCCCCCCCCCC

The remaining lines, values behind:

Row | Structure (SMILES) | inhibition [1] | IC50 [2] | IC50 [1]
5 | CCCCCCCCCCCCCCCC(=O)OC[C@@H](COP(=O)(O)O[C@H]1[C@H](O)[C@@H](O)[C@H](O)[C@@H](CF)[C@H]1O)OC(=O)CCCCCCCCCCCCCCC | 60% |  | 
6 | CCCCCCCCCCCCCCCC(=O)OC[C@@H](COP(=O)(O)O[C@H]1[C@H](O)[C@@H](O)[C@H](O)[C@@H](CO)[C@H]1O)OC(=O)CCCCCCCCCCCCCCC | 85% |  | 35 µM
7 | O=c1cc(N2CCOCC2)oc2c(-c3ccccc3)cccc12 |  | 1.8 µM | 
